IC50 data for three molecules are collected here from patent publication US9969741B2, “Pyrazolotriazines as inhibitors of nucleases” (MASARYKOVA UNIVERZITA, priority 2014, dated 2018).

The test has as its target T1, MUS81/EME1 (Homo sapiens, UniProt Q96NY9).
T1 sequence (Q96NY9 1-551): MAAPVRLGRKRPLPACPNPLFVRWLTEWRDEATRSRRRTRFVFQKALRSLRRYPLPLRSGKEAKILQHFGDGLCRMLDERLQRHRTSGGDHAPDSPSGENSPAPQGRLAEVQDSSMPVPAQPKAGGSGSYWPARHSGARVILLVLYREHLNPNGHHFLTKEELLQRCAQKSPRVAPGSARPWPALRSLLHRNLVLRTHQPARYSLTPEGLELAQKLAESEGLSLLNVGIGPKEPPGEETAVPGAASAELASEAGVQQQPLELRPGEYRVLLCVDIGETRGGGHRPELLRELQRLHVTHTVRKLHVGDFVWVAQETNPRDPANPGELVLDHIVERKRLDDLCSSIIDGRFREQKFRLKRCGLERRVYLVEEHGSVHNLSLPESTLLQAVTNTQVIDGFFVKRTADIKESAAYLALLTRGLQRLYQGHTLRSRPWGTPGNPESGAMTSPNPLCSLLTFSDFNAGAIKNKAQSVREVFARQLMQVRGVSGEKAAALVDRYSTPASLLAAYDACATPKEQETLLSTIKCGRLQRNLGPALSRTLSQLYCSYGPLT
T1 sequence (Q96AY2 1-570 partner): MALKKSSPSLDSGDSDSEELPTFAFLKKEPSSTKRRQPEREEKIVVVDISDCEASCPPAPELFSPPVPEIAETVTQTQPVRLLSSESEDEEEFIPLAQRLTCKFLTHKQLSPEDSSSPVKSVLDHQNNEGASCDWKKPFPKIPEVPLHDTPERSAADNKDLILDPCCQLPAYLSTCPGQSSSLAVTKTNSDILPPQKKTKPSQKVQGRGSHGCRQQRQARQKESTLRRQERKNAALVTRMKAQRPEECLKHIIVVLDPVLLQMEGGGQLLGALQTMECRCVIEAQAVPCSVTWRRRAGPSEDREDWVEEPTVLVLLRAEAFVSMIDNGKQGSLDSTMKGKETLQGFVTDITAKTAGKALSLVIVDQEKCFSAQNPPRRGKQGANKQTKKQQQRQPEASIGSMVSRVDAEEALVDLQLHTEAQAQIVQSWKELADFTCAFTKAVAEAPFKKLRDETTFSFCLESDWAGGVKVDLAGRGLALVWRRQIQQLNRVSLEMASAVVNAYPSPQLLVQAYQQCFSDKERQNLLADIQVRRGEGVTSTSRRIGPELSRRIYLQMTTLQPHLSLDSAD
Description: Nuclease inhibition assay, MUS81/EME1 (3′ flap fluorescent DNA substrate, gel readout). The settings on record: 5 nM enzyme, 5 nM 3′ flap substrate, 15 min at 30° C. In kind it is biochemical. The text has this: In vitro assays were used for the determination of compound's IC50 values for inhibition of individual nucleases, i.e., MUS81/EME1, FEN1, EXO1, and MRE11. To generate IC50 values, concentration of compound was plotted against relative nuclease activity (in %). The dose-response curves were generated from inhibition data, from 5 point serial dilutions of inhibitory compounds, each in triplicate and fitted to a standard sigmoid curve. IC50 values were derived by standard nonlinear regression analysis.
All tested compounds were diluted in 100% DMSO (dimethylsulfoxide) to prepare working stocks with different concentrations. To keep the DMSO concentration constant in every reaction, always 0.5 μl of the compound stock was added to the reaction buffer. The reaction buffer differs depending on the enzyme tested. Also concentration of the compounds in the reaction depends on the particular enzyme, since the inhibitory effect of the compounds vary between the enzymes. Nevertheless, always doubling dilutions in the range 200-0.8 μM was used. The compound was added as the first component in the reaction buffer, followed by the enzyme addition. Short (15 minutes) pre-incubation step followed before the reaction was initiated by addition of DNA substrate (5 nM).
As a negative control, DNA substrate specific for each particular enzyme without the addition of the enzyme and the compound was used. The positive control contained all components of the reaction, except the compound of interest. However, to compensate for solvent effects, DMSO (at a final concentration of 2.5%) was included in the reaction.
For this experiment we prepared short fluorescently labeled oligonucleotide-based DNA substrates with specific structures reflecting the biochemical activities of tested individual nucleases (Table 1). These substrates were prepared by annealing of synthetic oligonucleotides purchased from VBC Biotech. Composition of each substrate is indicated below the table; the corresponding oligonucleotides were combined in equimolar ratios. For visualization, each substrate was labeled by fluorescent dye (fluorescein), which can be detected in the gel using appropriate imaging system (FLA-9000, Fuji) with filters for particular wavelengths (excitation: 485 nm, emission: 535 nm).
Nuclease assays were performed in reaction buffer specific for particular enzyme: MUS81/EME1 (50 mM Tris pH=7.5, 5 mM MgCl2, 1 mM DTT a 100 μg/ml BSA), MRE11 (30 mM Bis-Tris pH=7.0, 50 μg/ml BSA, 1 mM DTT a 250 μM MnCl2), EXO1 and FEN1 (50 mM Tris pH=7.5, 1 mM MgCl2, 1 mM DTT a 100 μg/ml BSA). The individual reactions were prepared by mixing with highly purified enzyme (MUS81/EME1 (5 nM), MRE11 (5 nM), EXO1 (5 nM) or FEN1 (10 nM); purification protocols described below), and different concentration of inhibitor (mentioned above) in corresponding reaction buffer. The final volume of the reaction was 20 μl. After short pre-incubation (15 minutes at room temperature), the reaction was initiated by addition of 5 nM of corresponding fluorescently labeled DNA substrate (3′ flap for MUS81/EME1, 5′ flap for MRE11 and FEN1, 3′ OH for EXO1; see FIG. 1) and incubated for 15 minutes at 30° C. Next, the reaction was stopped and deproteinized by addition of 2 μl of stop buffer, containing 0.1% SDS and 500 μg/ml proteinase K, and incubated for additional 5 minutes at 30° C. Then the loading dye, containing glycerol (60% glycerol, 10 mM Tris pH=7.4, 60 mM EDTA a 0.1% Orange G), was added to each reaction ( 1/10 of the reaction volume), and the whole mixture was subjected to electrophoresis in 10% polyacrylamide native gel (110 V, 40 min, 1× TBE). Fluorescently labeled DNA was detected by FLA-9000 scanner (Fuji) and the result was evaluated using Multi-Gauge V3.2 software (Fuji).
The Mus81/Eme1 expression construct was a kind gift from Dr. Steve West (Cancer Research UK). Briefly, the nuclease complex was purified as follows. […]
Broadly, the IC50 is the point on the concentration scale where inhibition reaches its midpoint. In turn, `Nc1c(-c2nc3ccccc3[nH]2)nnc2cc(-c3ccccc3)nn12` [Preparative Example 5C] registered an IC50 of less than 50 µM.

The molecule `CCc1nn2c(N)c(-c3nc4ccccc4[nH]3)nnc2c1-c1ccc(F)cc1` [Preparative Example 5A] displayed a concentration for half-maximal inhibition (IC50) of less than 10 µM.

For the molecule `Nc1c(-c2nc3ccccc3[nH]2)nnc2cc(-c3cccc4ccccc34)nn12` [Preparative Example 5K], the IC50 was less than 10 µM.
